SMILES strings stand for the structures. pIC50: −log10 of the molar value.

What all share (test): filter binding kinase assay
Type in all cases: biochemical
Common to all, as to details: derived from % inhibition at 1 μM

The target in experiment [1] is T1, EPHB3 (Homo sapiens, UniProt P54753).
T1 construct: purchased
T1 sequence (P54753 34-998): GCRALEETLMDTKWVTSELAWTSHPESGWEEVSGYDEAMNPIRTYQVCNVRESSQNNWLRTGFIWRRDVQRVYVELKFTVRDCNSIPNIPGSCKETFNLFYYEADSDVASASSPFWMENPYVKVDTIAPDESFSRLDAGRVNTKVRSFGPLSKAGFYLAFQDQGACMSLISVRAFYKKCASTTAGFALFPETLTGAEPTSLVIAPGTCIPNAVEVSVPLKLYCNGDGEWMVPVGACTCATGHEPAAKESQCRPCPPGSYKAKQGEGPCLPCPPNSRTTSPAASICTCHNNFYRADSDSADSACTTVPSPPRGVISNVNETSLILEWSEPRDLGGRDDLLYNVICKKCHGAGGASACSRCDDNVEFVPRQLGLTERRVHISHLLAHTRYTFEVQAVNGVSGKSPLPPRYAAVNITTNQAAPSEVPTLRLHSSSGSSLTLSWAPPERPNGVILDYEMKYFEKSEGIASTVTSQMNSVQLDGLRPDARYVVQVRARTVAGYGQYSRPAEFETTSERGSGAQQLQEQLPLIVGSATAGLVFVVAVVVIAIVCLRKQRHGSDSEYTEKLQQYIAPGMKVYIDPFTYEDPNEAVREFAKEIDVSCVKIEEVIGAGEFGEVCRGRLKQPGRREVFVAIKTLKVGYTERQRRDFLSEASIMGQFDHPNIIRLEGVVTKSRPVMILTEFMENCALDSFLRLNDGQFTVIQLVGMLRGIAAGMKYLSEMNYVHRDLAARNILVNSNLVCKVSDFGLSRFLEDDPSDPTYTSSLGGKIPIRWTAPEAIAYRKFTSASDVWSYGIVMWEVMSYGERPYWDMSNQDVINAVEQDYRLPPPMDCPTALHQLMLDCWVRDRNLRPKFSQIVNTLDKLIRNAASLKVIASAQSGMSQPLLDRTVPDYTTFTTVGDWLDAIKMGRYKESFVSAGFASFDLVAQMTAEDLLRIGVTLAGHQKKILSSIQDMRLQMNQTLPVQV
The method in brief:
(§1)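 Kinase activity is measured at room temperature by filter binding, with incorporated radiolabel counted after acid termination. A 5-minute preincubation of compound, enzyme and substrate precedes addition of ATP from a kinase-dependent stock (5, 20 or 50 […]).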

The target in experiment [2] is T2, HIPK3 (Homo sapiens, UniProt Q9H422).
T2 construct: purchased
T2 sequence (Q9H422 whole entry, species assumed): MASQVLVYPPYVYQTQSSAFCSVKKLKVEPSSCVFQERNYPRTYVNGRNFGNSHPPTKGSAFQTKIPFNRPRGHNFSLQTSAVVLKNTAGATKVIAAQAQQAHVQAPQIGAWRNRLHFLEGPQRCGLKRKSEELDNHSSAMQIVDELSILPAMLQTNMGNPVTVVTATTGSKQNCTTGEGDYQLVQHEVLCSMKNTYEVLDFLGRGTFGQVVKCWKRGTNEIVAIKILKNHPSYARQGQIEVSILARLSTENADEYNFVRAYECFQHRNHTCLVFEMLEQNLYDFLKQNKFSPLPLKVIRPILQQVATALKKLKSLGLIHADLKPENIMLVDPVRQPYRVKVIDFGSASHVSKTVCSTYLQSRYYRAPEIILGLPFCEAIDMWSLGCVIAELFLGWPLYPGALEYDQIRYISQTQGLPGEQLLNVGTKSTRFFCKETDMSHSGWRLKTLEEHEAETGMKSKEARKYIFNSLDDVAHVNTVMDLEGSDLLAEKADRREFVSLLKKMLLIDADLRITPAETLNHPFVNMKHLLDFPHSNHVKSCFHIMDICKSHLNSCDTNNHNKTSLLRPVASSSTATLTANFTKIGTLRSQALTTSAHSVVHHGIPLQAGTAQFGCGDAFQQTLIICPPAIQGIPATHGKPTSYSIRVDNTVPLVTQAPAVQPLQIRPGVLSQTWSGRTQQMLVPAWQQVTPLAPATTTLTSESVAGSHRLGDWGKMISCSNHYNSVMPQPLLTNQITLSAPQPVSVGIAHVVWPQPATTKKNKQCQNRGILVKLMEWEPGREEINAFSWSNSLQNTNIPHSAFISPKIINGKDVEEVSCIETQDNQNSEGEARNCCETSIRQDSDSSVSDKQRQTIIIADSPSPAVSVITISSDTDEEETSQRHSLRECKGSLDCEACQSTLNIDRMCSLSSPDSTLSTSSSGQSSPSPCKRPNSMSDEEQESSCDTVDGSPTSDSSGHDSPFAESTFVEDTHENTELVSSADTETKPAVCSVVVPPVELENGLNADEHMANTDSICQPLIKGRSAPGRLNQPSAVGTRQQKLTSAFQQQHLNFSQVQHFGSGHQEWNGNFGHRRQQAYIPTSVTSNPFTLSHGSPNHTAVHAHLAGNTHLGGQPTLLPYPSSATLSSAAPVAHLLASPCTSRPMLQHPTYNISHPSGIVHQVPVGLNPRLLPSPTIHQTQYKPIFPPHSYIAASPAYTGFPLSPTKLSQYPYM
The method in brief: as §1

For experiment [3], the target named is T3, IKBKE (Homo sapiens, UniProt Q14164).
T3 construct: purchased
T3 sequence (Q14164 1-716): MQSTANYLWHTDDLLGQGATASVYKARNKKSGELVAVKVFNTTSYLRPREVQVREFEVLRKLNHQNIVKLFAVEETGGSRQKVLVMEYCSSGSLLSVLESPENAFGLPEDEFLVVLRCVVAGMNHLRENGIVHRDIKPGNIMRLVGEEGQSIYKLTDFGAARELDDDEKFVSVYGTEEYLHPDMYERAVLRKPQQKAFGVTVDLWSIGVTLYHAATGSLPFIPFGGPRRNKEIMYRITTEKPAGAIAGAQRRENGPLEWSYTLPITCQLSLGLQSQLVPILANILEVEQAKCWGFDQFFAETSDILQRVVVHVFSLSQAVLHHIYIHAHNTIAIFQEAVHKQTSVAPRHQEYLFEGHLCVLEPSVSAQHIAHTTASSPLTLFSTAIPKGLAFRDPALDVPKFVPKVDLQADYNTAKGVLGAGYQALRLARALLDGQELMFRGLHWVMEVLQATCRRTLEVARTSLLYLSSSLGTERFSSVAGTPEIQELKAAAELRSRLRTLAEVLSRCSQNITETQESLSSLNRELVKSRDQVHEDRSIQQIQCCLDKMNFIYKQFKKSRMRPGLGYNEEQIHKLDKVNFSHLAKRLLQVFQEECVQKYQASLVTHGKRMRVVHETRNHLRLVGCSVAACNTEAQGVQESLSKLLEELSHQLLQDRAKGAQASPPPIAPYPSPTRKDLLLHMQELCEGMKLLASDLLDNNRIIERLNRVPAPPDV
The method in brief:
as §1

Experiment [4] deals with T4, LCK (Homo sapiens, UniProt P06239).
T4 construct: purchased
T4 sequence (P06239 whole entry, species assumed): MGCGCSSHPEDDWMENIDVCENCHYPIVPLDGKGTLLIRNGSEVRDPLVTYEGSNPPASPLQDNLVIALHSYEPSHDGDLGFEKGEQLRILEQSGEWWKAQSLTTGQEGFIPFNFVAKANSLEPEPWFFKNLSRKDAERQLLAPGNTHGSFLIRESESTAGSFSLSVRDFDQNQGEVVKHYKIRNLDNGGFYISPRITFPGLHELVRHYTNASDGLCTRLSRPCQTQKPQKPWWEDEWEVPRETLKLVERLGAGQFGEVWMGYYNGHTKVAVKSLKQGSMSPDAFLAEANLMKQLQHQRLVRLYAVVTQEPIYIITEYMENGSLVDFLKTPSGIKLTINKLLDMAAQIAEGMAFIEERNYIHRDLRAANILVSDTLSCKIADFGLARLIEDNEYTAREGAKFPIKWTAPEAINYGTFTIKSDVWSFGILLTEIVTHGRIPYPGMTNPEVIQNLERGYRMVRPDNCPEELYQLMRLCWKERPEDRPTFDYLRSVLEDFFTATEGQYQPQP
The method in brief:
as §1

In experiment [5] the target is T5, RPS6KA3 (Homo sapiens, UniProt P51812).
T5 construct: purchased
T5 sequence (P51812 whole entry, species assumed): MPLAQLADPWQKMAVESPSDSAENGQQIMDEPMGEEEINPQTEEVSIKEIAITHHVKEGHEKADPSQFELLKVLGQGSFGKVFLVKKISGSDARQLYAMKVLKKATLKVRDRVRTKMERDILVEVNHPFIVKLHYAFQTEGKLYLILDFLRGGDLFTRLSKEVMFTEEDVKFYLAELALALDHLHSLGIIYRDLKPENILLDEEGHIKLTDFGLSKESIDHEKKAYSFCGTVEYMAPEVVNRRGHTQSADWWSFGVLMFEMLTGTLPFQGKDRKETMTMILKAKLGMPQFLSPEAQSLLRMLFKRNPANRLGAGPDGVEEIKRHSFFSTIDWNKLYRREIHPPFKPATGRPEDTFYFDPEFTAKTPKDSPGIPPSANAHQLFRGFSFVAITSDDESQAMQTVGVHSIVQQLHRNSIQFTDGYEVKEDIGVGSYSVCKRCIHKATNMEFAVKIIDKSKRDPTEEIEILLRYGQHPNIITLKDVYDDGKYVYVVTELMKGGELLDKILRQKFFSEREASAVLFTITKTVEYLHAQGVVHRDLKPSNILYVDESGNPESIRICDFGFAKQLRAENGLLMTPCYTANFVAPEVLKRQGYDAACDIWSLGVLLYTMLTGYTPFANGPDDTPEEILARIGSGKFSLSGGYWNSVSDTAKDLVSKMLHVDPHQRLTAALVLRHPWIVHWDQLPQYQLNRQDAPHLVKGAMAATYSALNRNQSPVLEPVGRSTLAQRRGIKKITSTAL
The gist of the method: as §1

For experiment [6], the target named is T6, TBK1 (Homo sapiens, UniProt Q9UHD2).
T6 construct: purchased
T6 sequence (Q9UHD2 1-729): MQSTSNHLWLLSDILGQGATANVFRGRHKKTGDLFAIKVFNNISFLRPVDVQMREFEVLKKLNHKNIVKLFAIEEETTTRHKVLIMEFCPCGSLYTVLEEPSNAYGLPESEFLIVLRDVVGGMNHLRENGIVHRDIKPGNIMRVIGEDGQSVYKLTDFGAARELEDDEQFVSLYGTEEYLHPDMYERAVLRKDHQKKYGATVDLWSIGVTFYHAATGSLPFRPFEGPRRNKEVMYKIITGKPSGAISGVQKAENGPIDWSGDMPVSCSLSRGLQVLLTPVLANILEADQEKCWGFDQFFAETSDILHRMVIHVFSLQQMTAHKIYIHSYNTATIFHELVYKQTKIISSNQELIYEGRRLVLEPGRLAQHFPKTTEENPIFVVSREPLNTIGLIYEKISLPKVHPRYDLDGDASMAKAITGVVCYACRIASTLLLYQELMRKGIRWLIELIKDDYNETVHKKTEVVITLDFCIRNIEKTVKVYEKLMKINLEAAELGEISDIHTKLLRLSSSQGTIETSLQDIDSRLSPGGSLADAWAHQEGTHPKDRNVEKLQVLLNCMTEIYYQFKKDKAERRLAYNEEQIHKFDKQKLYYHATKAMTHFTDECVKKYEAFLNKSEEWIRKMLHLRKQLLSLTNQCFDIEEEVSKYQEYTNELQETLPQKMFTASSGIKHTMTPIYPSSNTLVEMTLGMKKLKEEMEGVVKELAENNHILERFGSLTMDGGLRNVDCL
The method in brief:
as §1

By pIC50 is commonly meant the IC50 on a negative log10 scale, so that one unit is a factor of ten. A high value points to a small IC50. Consider `Nc1ncsc1C#Cc1cnc2[nH]ccc2c1` [Compound A22, 5-(1H-pyrrolo[2,3-b]pyridin-5-ylethynyl)thiazol-4-ylamine], for which the pIC50 in experiment [1] is 4.00 to 5.00; in experiment [2] it was 5.00 to 6.00; in experiment [3], under 6.00; in experiment [4] it was under 6.00; in experiment [5] it was 4.00 to 5.00; in experiment [6], under 6.00.

Regarding `CC(C)(C)OC(=O)Nc1ncsc1C#CCN1C(=O)c2ccccc2C1=O` [Compound A26, tert-butyl{5-[3-(1,3-dioxo-1,3-dihydroisoindol-2-yl)prop-1-ynyl]-thiazol-4-yl}carbamate], the pIC50 in experiment [1] was 5.00 to 6.00; in experiment [2] it was 4.00 to 5.00; in experiment [3], 4.00 to 5.00; in experiment [4], under 6.00; in experiment [5] it was under 6.00; in experiment [6], under 6.00.

For `Nc1ncsc1C#Cc1cccc(O)c1` [Compound A27, 3-(4-aminothiazol-5-ylethynyl)phenol], the pIC50 in experiment [1] was 5.00 to 6.00; in experiment [2], 5.00 to 6.00; in experiment [3], under 6.00; in experiment [4] it was 5.00 to 6.00; in experiment [5], 5.00 to 6.00; in experiment [6] it was under 6.00.

Consider `CC(C)(C)OC(=O)Nc1nc(-c2ccncc2)sc1C#CCN1CCOCC1` [Compound A25, tert-butyl[5-(3-morpholin-4-ylprop-1-ynyl)-2-pyridin-4-ylthiazol-4-yl]-carbamate], for which the pIC50 in experiment [1] was under 6.00; in experiment [2] it was 4.00 to 5.00; in experiment [3] it was 5.00 to 6.00; in experiment [4], under 6.00; in experiment [5], under 6.00; in experiment [6] it was 4.00 to 5.00.

Regarding `c1ccc(Cc2c[nH]c3ncsc23)cc1` [Compound A7, 6-benzyl-4H-pyrrolo[2,3-d]thiazole], the pIC50 was under 6.00 in experiment [1]; 5.00 to 6.00 in experiment [2]; 4.00 to 5.00 in experiment [3]; 4.00 to 5.00 in experiment [4]; 5.00 to 6.00 in experiment [5]; under 6.00 in experiment [6].

The values are drawn from patent US8703961B2, “Thiazole derivatives for the treatment of diseases such as cancer” (Merck Patent GmbH, priority 2009, dated 2014).
